Measurements reported in the OligoGym collection.
Bases are written 5' to 3'; sugars and linkages follow in the same order, as letters with counts (s phosphorothioate, o phosphodiester; PS: all linkages phosphorothioate). C may stand for cytosine or 5-methylcytosine; the collection does not tell. l = locked nucleic acid (LNA); d = 2'-deoxy (DNA)

Target: HIF1A
Assay: HeLa, 100 nM transfected, 24 h, mean of 3
Settings: ASO

Sequence	caspase activation (% of PBS control)
TGGCAAGCATCCTGTA (sugars l2 d9 l2 d2 l1, PS)	422
TGGCAAGCATCCT (sugars l4 d6 l3, PS)	361
TGGCAAGCATCCTGTA (sugars l2 d10 l2 d1 l1, PS)	366
TGGCAAGCATCCTGTA (sugars llddlddddddldddl, PS)	383
TGGCAAGCATCCTGTA (sugars lddllddddddddldl, PS)	397
GCAAGCATCCTGT (sugars l3 d8 l2, PS)	450
GTTACTGCCTTCTTAC (sugars l5 d6 l3 d1 l1, PS)	603
GGCAAGCATCCTG (sugars lddlddddddldl, PS)	198
TGGCAAGCATCCTGTA (sugars ldllddddddddlddl, PS)	438
GTTACTGCCTTCT (sugars l3 d7 l1 d1 l1, PS)	161
TGGCAAGCATCCTGTA (sugars l3 d9 l2 d1 l1, PS)	634
TGGCAAGCATCCTGTA (sugars l5 d7 l1 d1 l2, PS)	390
GTTACTGCCTTCTTAC (sugars lldlldddddddlddl, PS)	278
TGGCAAGCATCCTGTA (sugars l2 d2 l1 d7 l4, PS)	366
GCAAGCATCCTGT (sugars l1 d11 l1, PS)	137
GTTACTGCCTTCT (sugars l2 d1 l1 d7 l2, PS)	134
GTTACTGCCTTCTTAC (sugars l1 d2 l2 d6 l5, PS)	485
TTACTGCCTTCTT (sugars ldldddddddldl, PS)	154
TGGCAAGCATCCTGTA (sugars lddllddddddllddl, PS)	388
TGGCAAGCATCCTGTA (sugars l5 d6 l2 d2 l1, PS)	344
GTTACTGCCTTCTTAC (sugars lddllddddddlddll, PS)	218
GGCAAGCATCCTG (sugars l1 d1 l1 d9 l1, PS)	339
TGGCAAGCATCCTGTA (sugars ldlddddddddllldl, PS)	254
ACTGCCTTCTTAC (sugars ldllddddddldl, PS)	217

Sequence	caspase activation (% of PBS control)
TGGCAAGCATCCT (sugars l1 d10 l2, PS)	253
GTTACTGCCTTCTTAC (sugars l3 d8 l5, PS)	379
GCAAGCATCCTGT (sugars l1 d9 l3, PS)	147
GTTACTGCCTTCT (sugars l2 d8 l1 d1 l1, PS)	98.3
GCAAGCATCCTGT (sugars l4 d7 l2, PS)	352
TTACTGCCTTCTT (sugars l2 d1 l1 d7 l2, PS)	202
GTTACTGCCTTCTTAC (sugars lddlldddddddlldl, PS)	374
ACTGCCTTCTTAC (sugars lldlddddddldl, PS)	146
TGGCAAGCATCCTGTA (sugars llldlddddddddldl, PS)	350
GTTACTGCCTTCTTAC (sugars lldllddddddldldl, PS)	294
TGGCAAGCATCCT (sugars lddlddddddldl, PS)	132
GTTACTGCCTTCTTAC (sugars l1 d3 l1 d10 l1, PS)	130
TGGCAAGCATCCTGTA (sugars lddlldddddddldll, PS)	412
TGGCAAGCATCCTGTA (sugars ldldlddddddldlll, PS)	309
GTTACTGCCTTCTTAC (sugars llddlddddddlldll, PS)	208
GTTACTGCCTTCTTAC (sugars ldlddddddddllddl, PS)	158
ACTGCCTTCTTAC (sugars l1 d2 l1 d8 l1, PS)	119
GTTACTGCCTTCTTAC (sugars lddldddddddllddl, PS)	135
TGGCAAGCATCCTGTA (sugars l3 d9 l4, PS)	582
GTTACTGCCTTCTTAC (sugars ldlldddddddddldl, PS)	142
TGGCAAGCATCCT (sugars l1 d1 l1 d8 l2, PS)	145
TGGCAAGCATCCTGTA (sugars l2 d1 l1 d11 l1, PS)	378
GTTACTGCCTTCT (sugars l2 d9 l2, PS)	114
TGGCAAGCATCCTGTA (sugars ldldlddddddldldl, PS)	175

Sequence	caspase activation (% of PBS control)
GTTACTGCCTTCTTAC (sugars lldllddddddldlll, PS)	278
GTTACTGCCTTCTTAC (sugars l2 d10 l4, PS)	151
GTTACTGCCTTCTTAC (sugars lldllddddddlddll, PS)	261
TGGCAAGCATCCTGTA (sugars l2 d2 l1 d6 l5, PS)	432
TGGCAAGCATCCTGTA (sugars l2 d12 l2, PS)	389
GTTACTGCCTTCTTAC (sugars l2 d12 l2, PS)	103
CAAGCATCCTGTA (sugars l3 d7 l1 d1 l1, PS)	302
TGGCAAGCATCCTGTA (sugars l1 d1 l2 d11 l1, PS)	324
TGGCAAGCATCCTGTA (sugars l3 d8 l2 d2 l1, PS)	221
TGGCAAGCATCCTGTA (sugars ldldldddddddlddl, PS)	226
TGGCAAGCATCCT (sugars l2 d8 l3, PS)	315
TGGCAAGCATCCTGTA (sugars ldldldddddddllll, PS)	309
TACTGCCTTCTTA (sugars l2 d8 l1 d1 l1, PS)	223
GTTACTGCCTTCTTAC (sugars l2 d10 l1 d2 l1, PS)	123
TGGCAAGCATCCTGTA (sugars l3 d12 l1, PS)	237
TGGCAAGCATCCTGTA (sugars ldlldddddddldlll, PS)	435
TACTGCCTTCTTA (sugars l2 d9 l2, PS)	184
GTTACTGCCTTCTTAC (sugars ldddlddddddldldl, PS)	161
GCAAGCATCCTGT (sugars l1 d1 l2 d6 l3, PS)	186
TGGCAAGCATCCTGTA (sugars l1 d14 l1, PS)	201
GTTACTGCCTTCTTAC (sugars l2 d1 l2 d7 l4, PS)	376
TGGCAAGCATCCTGTA (sugars ldlldddddddldldl, PS)	400
CAAGCATCCTGTA (sugars l3 d7 l3, PS)	437
GTTACTGCCTTCTTAC (sugars l1 d10 l2 d2 l1, PS)	134
